Legend:
SK-MEL-28 = assay: Growth inhibition of human SK-MEL-28 cells assessed as cell growth at 10 uM incubated for 48 hrs by sulforhodamine B assay; type: functional; conditions: SK-MEL-28, 48 h, read-out: Activity
SK-MEL-2 = assay: Growth inhibition of human SK-MEL-2 cells assessed as cell growth at 10 uM incubated for 48 hrs by sulforhodamine B assay; type: functional; conditions: SK-MEL-2, 48 h, read-out: Activity
MDA-MB-435 = assay: Growth inhibition of human MDA-MB-435 cells assessed as cell growth at 10 uM incubated for 48 hrs by sulforhodamine B assay; type: functional; conditions: MDA-MB-435, 48 h, read-out: Activity
Malme-3M = assay: Growth inhibition of human MALME-3M cells assessed as cell growth at 10 uM incubated for 48 hrs by sulforhodamine B assay; type: functional; conditions: read-out: Activity
[1] = Growth inhibition of human LOXIMVI cells assessed as cell growth at 10 uM incubated for 48 hrs by sulforhodamine B assay; type: functional; conditions: LOX IMVI, read-out: Activity
U-251 = assay: Growth inhibition of human U251 cells assessed as cell growth at 10 uM incubated for 48 hrs by sulforhodamine B assay; type: functional; conditions: U-251, 48 h, read-out: Activity
SNB-75 = assay: Growth inhibition of human SNB75 cells assessed as cell growth at 10 uM incubated for 48 hrs by sulforhodamine B assay; type: functional; conditions: SNB-75, 48 h, read-out: Activity
[2] = Growth inhibition of human SF539 cells assessed as cell growth at 10 uM incubated for 48 hrs by sulforhodamine B assay; type: functional; conditions: SF-539, 48 h, read-out: Activity
[3] = Growth inhibition of human SF295 cells assessed as cell growth at 10 uM incubated for 48 hrs by sulforhodamine B assay; type: functional; conditions: SF-295, 48 h, read-out: Activity
SF-268 = assay: Growth inhibition of human SF268 cells assessed as cell growth at 10 uM incubated for 48 hrs by sulforhodamine B assay; type: functional; conditions: SF-268, 48 h, read-out: Activity
SW-620 = assay: Growth inhibition of human SW620 cells assessed as cell growth at 10 uM incubated for 48 hrs by sulforhodamine B assay; type: functional; conditions: SW-620, 48 h, read-out: Activity
HT-29 = assay: Growth inhibition of human HT-29 cells assessed as cell growth at 10 uM incubated for 48 hrs by sulforhodamine B assay; type: functional; conditions: HT-29, 48 h, read-out: Activity
[4] = Growth inhibition of human HCC2998 cells assessed as cell growth at 10 uM incubated for 48 hrs by sulforhodamine B assay; type: functional; conditions: HCC 2998, 48 h, read-out: Activity
[5] = Growth inhibition of human COLO205 cells assessed as cell growth at 10 uM incubated for 48 hrs by sulforhodamine B assay; type: functional; conditions: COLO 205, 48 h, read-out: Activity
NCI-H460 = assay: Growth inhibition of human NCI-H460 cells assessed as cell growth at 10 uM incubated for 48 hrs by sulforhodamine B assay; type: functional; conditions: NCI-H460, 48 h, read-out: Activity
NCI-H23 = assay: Growth inhibition of human NCI-H23 cells assessed as cell growth at 10 uM incubated for 48 hrs by sulforhodamine B assay; type: functional; conditions: NCI-H23, 48 h, read-out: Activity
NCI-H226 = assay: Growth inhibition of human NCI-H226 cells assessed as cell growth at 10 uM incubated for 48 hrs by sulforhodamine B assay; type: functional; conditions: NCI-H226, 48 h, read-out: Activity
HOP-62 = assay: Growth inhibition of human HOP62 cells assessed as cell growth at 10 uM incubated for 48 hrs by sulforhodamine B assay; type: functional; conditions: HOP-62, 48 h, read-out: Activity
A549 = assay: Growth inhibition of human A549/ATCC cells assessed as cell growth at 10 uM incubated for 48 hrs by sulforhodamine B assay; type: functional; conditions: A549, 48 h, read-out: Activity
[6] = Growth inhibition of human MOLT4 cells assessed as cell growth at 10 uM incubated for 48 hrs by sulforhodamine B assay; type: functional; conditions: MOLT-4, 48 h, read-out: Activity
K562 = assay: Growth inhibition of human K562 cells assessed as cell growth at 10 uM incubated for 48 hrs by sulforhodamine B assay; type: functional; conditions: K562, 48 h, read-out: Activity
CCRF-CEM = assay: Growth inhibition of human CCRF-CEM cells assessed as cell growth at 10 uM incubated for 48 hrs by sulforhodamine B assay; type: functional; conditions: read-out: Activity
UACC-257 = assay: Growth inhibition of human UACC257 cells assessed as cell growth at 10 uM incubated for 48 hrs by sulforhodamine B assay; type: functional; conditions: UACC-257, 48 h, read-out: Activity
IGROV-1 = assay: Growth inhibition of human IGROV1 cells assessed as cell growth at 10 uM incubated for 48 hrs by sulforhodamine B assay; type: functional; conditions: IGROV-1, 48 h, read-out: Activity
OVCAR-3 = assay: Growth inhibition of human OVCAR3 cells assessed as cell growth at 10 uM incubated for 48 hrs by sulforhodamine B assay; type: functional; conditions: OVCAR-3, 48 h, read-out: Activity
OVCAR-5 = assay: Growth inhibition of human OVCAR5 cells assessed as cell growth at 10 uM incubated for 48 hrs by sulforhodamine B assay; type: functional; conditions: OVCAR-5, 48 h, read-out: Activity
CAKI-1 = assay: Growth inhibition of human Caki1 cells assessed as cell growth at 10 uM incubated for 48 hrs by sulforhodamine B assay; type: functional; conditions: CAKI-1, 48 h, read-out: Activity
SN12C = assay: Growth inhibition of human SN12C cells assessed as cell growth at 10 uM incubated for 48 hrs by sulforhodamine B assay; type: functional; conditions: read-out: Activity
TK-10 = assay: Growth inhibition of human TK10 cells assessed as cell growth at 10 uM incubated for 48 hrs by sulforhodamine B assay; type: functional; conditions: TK-10, 48 h, read-out: Activity
UO-31 = assay: Growth inhibition of human UO31 cells assessed as cell growth at 10 uM incubated for 48 hrs by sulforhodamine B assay; type: functional; conditions: UO-31, 48 h, read-out: Activity
PC-3 = assay: Growth inhibition of human PC3 cells assessed as cell growth at 10 uM incubated for 48 hrs by sulforhodamine B assay; type: functional; conditions: PC-3, 48 h, read-out: Activity
MDA-MB-231 = assay: Growth inhibition of human MDA-MB-231/ATCC cells assessed as cell growth at 10 uM incubated for 48 hrs by sulforhodamine B assay; type: functional; conditions: MDA-MB-231, 48 h, read-out: Activity
[7] = Growth inhibition of human Hs 578T cells assessed as cell growth at 10 uM incubated for 48 hrs by sulforhodamine B assay; type: functional; conditions: read-out: Activity
T47D = assay: Growth inhibition of human T47D cells assessed as cell growth at 10 uM incubated for 48 hrs by sulforhodamine B assay; type: functional; conditions: read-out: Activity
MDA-MB-468 = assay: Growth inhibition of human MDA-MB-468 cells assessed as cell growth at 10 uM incubated for 48 hrs by sulforhodamine B assay; type: functional; conditions: MDA-MB-468, 48 h, read-out: Activity
DU-145 = assay: Antiproliferative activity against human DU145 cells assessed as cell viability incubated for 72 hrs by MTT assay; type: functional, cell-based; conditions: DU-145, 72 h

In the case of `O=C(O)c1c(Sc2ccc(Cl)cc2)c(O)nc2ccccc12`, the growth at 10 µM (SK-MEL-28) is reported as 99%, the growth at 10 µM (SK-MEL-2) is reported as 120% and the growth at 10 µM (MDA-MB-435) is reported as 102%. For the same compound, the growth at 10 µM (Malme-3M) was 107%, the growth at 10 µM [1] was 90.5% and the growth at 10 µM (U-251) was 99.6%. It also gave a growth at 10 µM (SNB-75) of 82.2%, a growth at 10 µM [2] of 110% and a growth at 10 µM [3] of 99%. It also gave a growth at 10 µM (SF-268) of 114%, a growth at 10 µM (SW-620) of 96.9% and a growth at 10 µM (HT-29) of 101%. It also gave a growth at 10 µM [4] of 101%, a growth at 10 µM [5] of 109% and a growth at 10 µM (NCI-H460) of 104%. It also gave a growth at 10 µM (NCI-H23) of 92.6%, a growth at 10 µM (NCI-H226) of 106% and a growth at 10 µM (HOP-62) of 116%. The growth at 10 µM (A549) was 107%, the growth at 10 µM [6] was 97.2% and the growth at 10 µM (K562) was 112%. For the same compound, the growth at 10 µM (CCRF-CEM) was 98.3%, the growth at 10 µM (UACC-257) was 122% and the growth at 10 µM (IGROV-1) was 104%. It also gave a growth at 10 µM (OVCAR-3) of 121%, a growth at 10 µM (OVCAR-5) of 112% and a growth at 10 µM (CAKI-1) of 76.3%. For the same compound, the growth at 10 µM (SN12C) was 95.8%, the growth at 10 µM (TK-10) was 118% and the growth at 10 µM (UO-31) was 68.9%. For the same compound, the growth at 10 µM (PC-3) was 93.2%, the growth at 10 µM (MDA-MB-231) was 95.7% and the growth at 10 µM [7] was 88.3%. The growth at 10 µM (T47D) was 99.6%, the growth at 10 µM (MDA-MB-468) was 105% and the IC50 (DU-145) was greater than 15 µM.

`O=c1c2ccc(Cl)cc2sc2c(Cl)nc3ccccc3c12` gave a growth at 10 µM (SK-MEL-28) of 102%, a growth at 10 µM (SK-MEL-2) of 95.5% and a growth at 10 µM (MDA-MB-435) of 101%. For the same compound, the growth at 10 µM (Malme-3M) was 95.9%, the growth at 10 µM [1] was 90.5% and the growth at 10 µM (U-251) was 102%. For the same compound, the growth at 10 µM (SNB-75) was 77.9%, the growth at 10 µM [2] was 89% and the growth at 10 µM [3] was 90.3%. The growth at 10 µM (SF-268) was 110%, the growth at 10 µM (SW-620) was 99.1% and the growth at 10 µM (HT-29) was 99.7%. The growth at 10 µM [4] was 123%, the growth at 10 µM [5] was 112% and the growth at 10 µM (NCI-H460) was 103%. For the same compound, the growth at 10 µM (NCI-H23) was 85.1%, the growth at 10 µM (NCI-H226) was 83.4% and the growth at 10 µM (HOP-62) was 82%. The growth at 10 µM (A549) was 105%, the growth at 10 µM [6] was 98% and the growth at 10 µM (K562) was 101%. It also gave a growth at 10 µM (CCRF-CEM) of 93.1%, a growth at 10 µM (UACC-257) of 104% and a growth at 10 µM (IGROV-1) of 96.1%. It also gave a growth at 10 µM (OVCAR-3) of 111%, a growth at 10 µM (OVCAR-5) of 100% and a growth at 10 µM (CAKI-1) of 94.3%. The growth at 10 µM (SN12C) was 95.9%, the growth at 10 µM (TK-10) was 109% and the growth at 10 µM (UO-31) was 66.1%. It also gave a growth at 10 µM (PC-3) of 91.6%, a growth at 10 µM (MDA-MB-231) of 84.3% and a growth at 10 µM [7] of 95.1%. For the same compound, the growth at 10 µM (T47D) was 110%, the growth at 10 µM (MDA-MB-468) was 98.6% and the IC50 (DU-145) was greater than 15 µM.
